# Source: patent US20190322676A1, “CERAMIDE GALACTOSYLTRANSFERASE INHIBITORS FOR THE TREATMENT OF DISEASE” (BioMarin Pharmaceutical Inc., priority 2016, published 2019)
# pIC50: −log10 of the molar value. Where a name gives a salt, the structure may show the parent alone.
# Target: T1, human CGT (ceramide galactosyltransferase), CHO/CGT lysate (Homo sapiens, UniProt Q16880)
# T1 construct: Full-length human CGT cDNA was cloned into the BamH1/Xho1 site of pcDNA3.1 (+); expressed in transfected cells; host or cells: Chinese hamster ovary (CHO) cells; lysate prepared with M-PER
# T1 sequence (Q16880 21-541): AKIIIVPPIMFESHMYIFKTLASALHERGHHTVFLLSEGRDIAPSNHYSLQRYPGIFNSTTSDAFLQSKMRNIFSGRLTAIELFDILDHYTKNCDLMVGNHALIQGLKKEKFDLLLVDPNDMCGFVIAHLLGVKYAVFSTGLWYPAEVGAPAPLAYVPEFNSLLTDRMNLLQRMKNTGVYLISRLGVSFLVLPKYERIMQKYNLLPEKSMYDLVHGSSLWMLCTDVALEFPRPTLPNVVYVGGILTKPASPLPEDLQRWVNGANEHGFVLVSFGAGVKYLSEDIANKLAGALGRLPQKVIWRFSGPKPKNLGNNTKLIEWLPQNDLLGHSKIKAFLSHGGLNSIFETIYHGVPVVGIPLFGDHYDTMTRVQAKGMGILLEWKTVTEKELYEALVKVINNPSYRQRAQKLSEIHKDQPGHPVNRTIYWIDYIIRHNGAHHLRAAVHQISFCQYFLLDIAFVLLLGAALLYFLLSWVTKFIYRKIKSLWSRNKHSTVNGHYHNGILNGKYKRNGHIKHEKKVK
# Test: CGT enzyme assay, RapidFire/MS/MS readout (Table 1 ranges with one asterisk *)
# Type: biochemical
# Conditions: RapidFire method (range with one asterisk *)
# Procedure, shortened: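 Lysate (4 μg) of CHO cells transfected with full-length human CGT incubated 1 h at 37 °C with compound (0.001–50 μM) in pH 7.2 HEPES buffer with 10 μM C6-NBD-dihydro-ceramide, 17.5 μM UDP-galactose, Mg2+/Mn2+, CHAPS, BSA, 0.5% DMSO; ** set also contained 0.01% Tween 80. Product quantified by RapidFire/MS/MS, normalized to internal standard; IC50 from sigmoidal variable-slope fits.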
row,Structure (SMILES),pIC50
1,"NC1CC2CCC(C1)N2C(=O)[C@@H](NS(=O)(=O)c1ccc2cc(OC3CCCC3)ccc2c1)C(F)(F)c1ccc(Oc2ccccc2)cc1 (stereo partly drawn) [Compound 86-1, N-((2R)-3-(3-amino-8-azabicyclo[3.2.1]octan-8-yl)-1,1-difluoro-3-oxo-1-(4-phenoxyphenyl)propan-2-yl)-6-(cyclopentyloxy)naphthalene-2-sulfonamide trifluoroacetate]",> 6.00
2,"CCCCOc1cc(C(F)(F)[C@H](NS(=O)(=O)c2ccc3cc(OC4CCCC4)ccc3c2)C(=O)N2C3CCC2CC(N)C3)ccc1Cl (stereo partly drawn) [Compound 118-1, N-((2R)-3-(3-amino-8-azabicyclo[3.2.1]octan-8-yl)-1-(3-butoxy-4-chlorophenyl)-1,1-difluoro-3-oxopropan-2-yl)-6-(cyclopentyloxy)naphthalene-2-sulfonamide]",> 6.00
3,"CN([C@@H](C(=O)N1C2CCC1CC(N)C2)C(F)(F)c1cccc(Oc2ccccc2)c1)S(=O)(=O)c1ccc2cc(OC3CCCC3)ccc2c1 (stereo partly drawn) [Compound 111-2, N-((2S)-3-(3-amino-8-azabicyclo[3.2.1]octan-8-yl)-1,1-difluoro-3-oxo-1-(3-phenoxyphenyl)propan-2-yl)-6-(cyclopentyloxy)-N-methylnaphthalene-2-sulfonamide trifluoroacetate]",4.52 to 5.00
4,"CCCCOc1ccc(C(F)(F)[C@@H](NS(=O)(=O)c2ccc3cc(OC4CCCC4)ccc3c2)C(=O)N2CCC(N)CC2)cc1 [Compound 80-2, (S)—N-(3-(4-aminopiperidin-1-yl)-1-(4-butoxyphenyl)-1,1-difluoro-3-oxopropan-2-yl)-6-(cyclopentyloxy)naphthalene-2-sulfonamide]",5.00 to 6.00
5,"NC1CC2CCC(C1)N2C(=O)[C@H](NS(=O)(=O)c1ccc2cc(OC3CCCC3)ccc2c1)C(F)(F)c1ccc(-c2ccc(C(F)(F)F)cc2)cc1 (stereo partly drawn) [Compound 55-2, N-((2S)-3-(3-amino-8-azabicyclo[3.2.1]octan-8-yl)-1,1-difluoro-3-oxo-1-(4′-(trifluoromethyl)-[1,1′-biphenyl]-4-yl)propan-2-yl)-6-(cyclopentyloxy)naphthalene-2-sulfonamide trifluoroacetate]",5.00 to 6.00
6,"CCCCOc1cc(C(F)(F)[C@H](NS(=O)(=O)c2ccc(OCC3CCCCC3)cc2)C(=O)N2CCC(N)CC2)ccc1Cl [Compound 127-1, (R)—N-(3-(4-aminopiperidin-1-yl)-1-(3-butoxy-4-chlorophenyl)-1,1-difluoro-3-oxopropan-2-yl)-4-(cyclohexylmethoxy)benzenesulfonamide]",> 6.00
7,"COc1cc(C(F)(F)[C@@H](NS(=O)(=O)c2ccc3cc(OC4CCCC4)ccc3c2)C(=O)N2CCC(N)CC2)ccc1Cl [Compound 123-2, (S)—N-(3-(4-aminopiperidin-1-yl)-1-(4-chloro-3-methoxyphenyl)-1,1-difluoro-3-oxopropan-2-yl)-6-(cyclopentyloxy)naphthalene-2-sulfonamide]",5.00 to 6.00
8,"CCCCOc1cc(C(F)(F)[C@@H](NS(=O)(=O)c2ccc3cc(OC4CCCC4)ccc3c2)C(=O)N2CCC(N)CC2)ccc1Cl [Compound 126-2, (S)—N-(3-(4-aminopiperidin-1-yl)-1-(3-butoxy-4-chlorophenyl)-1,1-difluoro-3-oxopropan-2-yl)-6-(cyclopentyloxy)naphthalene-2-sulfonamide]",5.00 to 6.00
9,"NC1CC2CCC(C1)N2C(=O)[C@@H](NS(=O)(=O)c1ccc(OCC2CCCCC2)cc1)C(F)(F)c1ccc(-c2ccccc2)cc1 (stereo partly drawn) [Compound 35-1, N-((2R)-1-([1,1′-biphenyl]-4-yl)-3-(3-amino-8-azabicyclo[3.2.1]octan-8-yl)-1,1-difluoro-3-oxopropan-2-yl)-4-(cyclohexylmethoxy)benzenesulfonamide trifluoroacetate]",> 6.00
10,"NC1CC2CCC(C1)N2C(=O)[C@H](NS(=O)(=O)c1ccc2cc(OC3CCCC3)ccc2c1)C(F)(F)c1ccc(Cl)s1 (stereo partly drawn) [Compound 130-2, N-((2S)-3-(3-amino-8-azabicyclo[3.2.1]octan-8-yl)-1-(5-chlorothiophen-2-yl)-1,1-difluoro-3-oxopropan-2-yl)-6-(cyclopentyloxy)naphthalene-2-sulfonamide]",4.52 to 5.00
11,"NC1CC2CCC(C1)N2C(=O)[C@@H](NS(=O)(=O)c1ccc(OCC2CCCCC2)cc1)C(F)(F)c1ccc2cc(Br)ccc2c1 (stereo partly drawn) [Compound 40-1, N-((2R)-3-(3-amino-8-azabicyclo[3.2.1]octan-8-yl)-1-(6-bromonaphthalen-2-yl)-1,1-difluoro-3-oxopropan-2-yl)-4-(cyclohexylmethoxy) benzenesulfonamide trifluoroacetate]",5.00 to 6.00
12,"COc1cc(C(F)(F)[C@H](NS(=O)(=O)c2ccc(OCC3CCCCC3)cc2)C(=O)N2C3CCC2CC(N)C3)ccc1Cl (stereo partly drawn) [Compound 125-1, N-((2R)-3-(3-amino-8-azabicyclo[3.2.1]octan-8-yl)-1-(4-chloro-3-methoxyphenyl)-1,1-difluoro-3-oxopropan-2-yl)-4-(cyclohexylmethoxy) benzenesulfonamide]",> 6.00
13,"COc1cc(C(F)(F)[C@H](NS(=O)(=O)c2ccc3cc(OC4CCCC4)ccc3c2)C(=O)N2C3CCC2CC(N)C3)ccc1Cl (stereo partly drawn) [Compound 124-1, N-((2R)-3-(3-amino-8-azabicyclo[3.2.1]octan-8-yl)-1-(4-chloro-3-methoxyphenyl)-1,1-difluoro-3-oxopropan-2-yl)-6-(cyclopentyloxy)naphthalene-2-sulfonamide]",> 6.00
14,"NC1CC2CCC(C1)N2C(=O)[C@H](NS(=O)(=O)c1ccc2c(cnn2CC2CCCC2)c1)C(F)(F)c1ccc(Br)cc1 (stereo partly drawn) [Compound 74-2, N-((2S)-3-(3-amino-8-azabicyclo[3.2.1]octan-8-yl)-1-(4-bromophenyl)-1,1-difluoro-3-oxopropan-2-yl)-1-(cyclopentylmethyl)-1H-indazole-5-sulfonamide]",4.00 to 4.52
15,"NC1CC2CCC(C1)N2C(=O)[C@@H](NS(=O)(=O)c1ccc2cc(OC3CCC3)ccc2c1)C(F)(F)c1ccc(Br)cc1 (stereo partly drawn) [Compound 47-1, N-((2R)-3-(3-amino-8-azabicyclo[3.2.1]octan-8-yl)-1-(4-bromophenyl)-1,1-difluoro-3-oxopropan-2-yl)-6-cyclobutoxynaphthalene-2-sulfonamide]",5.00 to 6.00
16,"NC1CC2CCC(C1)N2C(=O)[C@H](NS(=O)(=O)c1ccc2cc(OC3CCCC3)ccc2c1)C(F)(F)c1ccc(-c2ccccc2)cc1 (stereo partly drawn) [Compound 36-2, N-((2S)-1-([1,1′-biphenyl]-4-yl)-3-(3-amino-8-azabicyclo[3.2.1]octan-8-yl)-1,1-difluoro-3-oxopropan-2-yl)-6-(cyclopentyloxy)naphthalene-2-sulfonamide trifluoroacetate]",5.00 to 6.00
17,"NC1CCN(C(=O)[C@@H](NS(=O)(=O)c2ccc3cc(OC4CCCC4)ccc3c2)C(F)(F)c2cccc(Oc3ccccc3)c2)CC1 [Compound 108-1, (R)—N-(3-(4-aminopiperidin-1-yl)-1,1-difluoro-3-oxo-1-(3-phenoxyphenyl)propan-2-yl)-6-(cyclopentyloxy)naphthalene-2-sulfonamide]",> 6.00
18,"NC1CCN(C(=O)[C@H](NS(=O)(=O)c2ccc(OCC3CCCCC3)cc2)C(F)(F)c2ccc(Cl)cc2)CC1 [Compound 30-2, (S)—N-(3-(4-aminopiperidin-1-yl)-1-(4-chlorophenyl)-1,1-difluoro-3-oxopropan-2-yl)-4-(cyclohexylmethoxy)benzenesulfonamide trifluoroacetate]",4.52 to 5.00
19,"CN([C@@H](C(=O)N1CCC(N)CC1)C(F)(F)c1ccc(Oc2ccccc2)cc1)S(=O)(=O)c1ccc2cc(OC3CCCC3)ccc2c1 [Compound 62-2, (S)—N-(3-(4-aminopiperidin-1-yl)-1,1-difluoro-3-oxo-1-(4-phenoxyphenyl)propan-2-yl)-6-(cyclopentyloxy)-N-methylnaphthalene-2-sulfonamide trifluoroacetate]",5.00 to 6.00
20,"NC1CC2CCC(C1)N2C(=O)[C@@H](NS(=O)(=O)c1ccc2cc(OC3CCCC3)ccc2c1)C(F)(F)c1cccc(Br)c1 (stereo partly drawn) [Compound 65-1, N-((2R)-3-(3-amino-8-azabicyclo[3.2.1]octan-8-yl)-1-(3-bromophenyl)-1,1-difluoro-3-oxopropan-2-yl)-6-(cyclopentyloxy)naphthalene-2-sulfonamide]",5.00 to 6.00
21,"NC1CC2CCC(C1)N2C(=O)[C@@H](NS(=O)(=O)c1ccc2cc(OC3CCCC3)ccc2c1)C(F)(F)c1ccc(-c2ccc(C(F)(F)F)cc2)cc1 (stereo partly drawn) [Compound 55-1, N-((2R)-3-(3-amino-8-azabicyclo[3.2.1]octan-8-yl)-1,1-difluoro-3-oxo-1-(4′-(trifluoromethyl)-[1,1′-biphenyl]-4-yl)propan-2-yl)-6-(cyclopentyloxy) naphthalene-2-sulfonamide trifluoroacetate]",> 6.00
22,"NC1CCN(C(=O)[C@H](NS(=O)(=O)c2ccc3cc(OC4CCCC4)ccc3c2)C(F)(F)c2ccc(-c3ccccc3)cc2)CC1 [Compound 43-2, (S)—N-(1-([1,1′-biphenyl]-4-yl)-3-(4-aminopiperidin-1-yl)-1,1-difluoro-3-oxopropan-2-yl)-6-(cyclopentyloxy)naphthalene-2-sulfonamide]",5.00 to 6.00
